# Measurements: patent EP4813463A2, “TYK2 INHIBITORS AND COMPOSITIONS AND METHODS THEREOF” (Lynk Pharmaceuticals Co. Ltd., priority 2023, dated 2024)
# Like-named read-outs stand apart in the source and are kept apart here.
# What was measured:
# IFNa pSTAT1 [1] = assay: Phosphorylation of STAT1 inhibition in HMC3 cells with HTRF assay; format: cell-based; details: Homo sapiens, HMC3 microglia cells, 50ng/mL hINFα 1 hour, read-out: HTRF_HMC3 IC 50 (IFNa pSTAT1)
# Method: Seeding HMC3 cells into 96-well plate and incubate overnight. Pre-stimulation with recombinant human IFNα (Sino biological, H08Y), treat cells with compound with different concentration for 1hr. After compound treatment, stimulate cells with 50ng/mL hINFα for another 1 hour (for CCF-STTG1 cells IFNα induction time is 30 mins). After compound treatment and cytokine stimulation, dump old medium and lyse cells with supplemented lysis buffer provided by the HTRF kit (Revvity, 63ADK026PEG) for 30 min at room temperature under shaking. After homogenization by pipetting up and down, transfer 16 µL of cell lysate from the 96-well cell-culture plate to a small volume white 384-well plate, and then add 4 µL of pre-mixed two ready-to-use antibody working solution into each wells. Cover the plate with a plate sealer and incubate it overnight at room temperature. Read the fluorescence emission at two different wavelengths (665nm and 620nm) on microplate reader (Molecular Device, SpectraMax i3X). Collect data and analyzed with GraphPad Prism.
# TYK2 pathway = assay: IFN-γ release in NK92 cells stimulated by IL-12 (ELISA); format: cell-based; details: IL-12 2.5ng/mL stimulation 15hrs, IFN-γ in supernatant by ELISA
# Method: IFN-γ Release in NK92 Cells Stimulated by IL-12
# Purpose: To evaluate the inhibition activity of TYK2 inhibitors in NK92 cells on TYK2 pathway through ELISA method.
# Procedure: 1) Seeding NK92 cells into 96-well plate, cell density is 1.5E5 cells/well, 100uL/well; 2)Add prepared test articles into indicated wells, 50uL/well, and continue incubate for 1h, at 37°C; 3) After compound treatment, add 50uL/well IL-12 into indicated wells, final concentration of IL-12 is 2.5ng/mL; 4)Incubate cytokine stimulated cells at 37°C for another 15hrs in CO2 incubator; 5) After cytokine stimulation, transfer culture supernatant into a new plate and centrifuge for 5min at 350x g, and detect IFN-γ concentration in the supernatant with ELISA kit; 6) Data analysis with GrapdPad Prism6.0 software. Table 5. IC50 Values of Exemplary Compounds on TYK2 Pathway
# IFNa pSTAT1 [2] = assay: Phosphorylation of STAT1 inhibition in CCF-STTG1 cells by Jess; format: cell-based; details: Homo sapiens, 0.5 h; CCF-STTG1 astrocyte cells, IFNα induction 30 mins, Jess western; read-out: Jess_CCF-STTG1 IC50 (IFNa pSTAT1)
# Method: Seeding HMC3 cells into 12-well plate and incubate overnight. Pre-stimulation with recombinant human IFNα (Sino biological, H08Y), treat cells with compound with different concentration for 1hr. After compound treatment, stimulate HMC3 cells with 50ng/mL hINFα for another 1 hour (for CCF-STTG1 cells IFNα induction time is 30 mins). And then wash cells with DPBS once gently and lyse cells with pre-cooled RIPA buffer (Sigma, R0278-500ML) for 30min on ice to harvest cells. Centrifuge cell lysate for 20 mins at 12000rpm with freezer centrifuge (Thermo Scientific, Heraeus Fresco 21) to extract protein. Prepare samples with Jess Simple Wes kit (SM-WO04) and then run western blot on Jess simple western system (Protein simple, JS-4631). Collect data and analyzed with GraphPad Prism.
# [3] = Pharmacokinetic study in rats; format: in vivo; details: rat, plasma, Sprague-Dawley rats, solution
# Method: Pharmacokinetic profiles of test articles were evaluated in fasted mouse, Sprague-Dawley rats and Beagle dogs. After dosing, blood samples were collected at each time point. For IV injection group, time points were set at 5, 15, 30 min, and then 1, 2, 4, 8 and 24 hours after dosing. For oral gavage group,#time points were set at 15, 30 min, and then 1, 2, 4, 8, and 24 hours. Blood was collected into appropriately labeled tubes containing K2EDTA as the anticoagulant. Plasma was obtained within 1 hours of blood collection by centrifugation at 8000×g and 4 °C for 6 minutes, and then stored at -20 °C until analyzed by LC/MS/MS for quantification. PK parameter values, including, but not necessarily limited to, the maximum plasma concentrations (Cmax), the time to reach the maximum concentrations (Tmax), and the area under the plasma concentration vs. time curve (AUC) from time zero to 24-hour (AUC0-24h) were determined using WinNonlin program. Table 17. […]
# [4] = Mice colon pharmacokinetic studies; format: in vivo; details: mouse, female Balb/c mice, oral gavage, 10 mg/kg; for half-life: read-out: Plasma T1/2 (converted)
# Method: Pharmacokinetic studies were investigated using female Balb/c mice to determine plasma and colon exposure of tested compounds. Compounds were administrated via oral gavage in a formulation of 0.5% Methocel (A4M) + 0.1% Tween80 in water to Balb/c mic. Animals were anesthetized at the designated time points, plasma, colon tissue and colonic contents samples were collected. Tissue samples were homogenized using MeOH : PBS(1:1). All samples were analyzed by LC-MS/MS.
# [5] = Brain pharmacokinetic studies in dogs; format: in vivo, Beagle dogs; details: for AUC / Kp: Beagle dogs, iv, 2 mg/kg, solution; for AUC: AUC0-4h; for Kp: read-out: Brain AUC/Systemic AUC; for brain exposure in Dogs: result in words
# Method: Pharmacokinetic profiles of test articles were evaluated in Beagle dogs. Different kinds of formulations were designed to ensure test articles fully dissolved and wouldn't precipitate in 1:10 SGF or FaSSIF dilution. The animal was restrained manually at the designated time points, approximately 500 µL of blood sample was collected via cephalic vein into K2EDTA tubes. The blood samples were maintained in wet ice first and centrifuged to obtain plasma (2000g, 4°C, 5 min) within 15 minutes post sampling. The animal was euthanized with pure […] inhalation. Shave the hair on the back of head and neck, and clean the skin of the area with iodine and 75% ethanol. Inject about 4-5 L saline from carotid artery for perfusion. Brain was collected after the perfusion fluid (saline) was gradually clarified. Dry the tissue on filtrate paper on ice, and then weigh the brain tissue and store at -70°C for later analysis. […] Table 15. Systemic Pharmacokinetic Parameters in Beagle Dogs
# [6] = plasma, read-out: Plasma AUC0-24
# [7] = colon tissue, read-out: Colon AUC0-24
# [8] = colonic contents, read-out: Colon content AUC0-24
# [9] = dog, systemic (plasma), read-out: AUC
compound,measurement,setting,value
"COC(=O)c1cnc(NC(=O)[C@@H]2C[C@@H]2F)cc1Nc1nn(C)c2ccc(C(O)C(F)(F)F)c(OC)c12 (single isomer, unassigned) [Example 122A, Methyl 6-((1S,2S)-2-fluorocyclopropane-1-carboxamido)-4-((4-methoxy-1-methyl-5-((S*)-2,2,2-trifluoro-1-hydroxyethyl)-1H-indazol-3-yl)amino) nicotinate]",IC50,IFNa pSTAT1 [1],< 0.061 nM
"[2H]C([2H])([2H])NC(=O)c1cnc(NC(=O)C2CC2)cc1Nc1cnn2ccc([C@H](O)C(F)(F)F)c(OC)c12 [Example 7A, (S)-6-(cyclopropanecarboxamido)-4-((4-methoxy-5-(2,2,2-trifluoro-1-hydroxyethyl)pyrazolo[1,5-a]pyridin-3-yl)amino)-N-(methyl-d3)nicotinamide]",IC50,TYK2 pathway,9.1 nM
same,IC50,IFNa pSTAT1 [2],6.82 nM
same,AUC,"[3]; intravenous, 1 mg/kg",0.317 µg·h/mL
same,Vd,"[3]; intravenous, 1 mg/kg",3.3 L/kg
same,clearance,"[3]; intravenous, 1 mg/kg",53.2 mL/min/kg
same,half-life,"[3]; intravenous, 1 mg/kg",0.84 h
same,AUC,"[3]; oral, 10 mg/kg",0.258 µg·h/mL
same,Cmax,"[3]; oral, 10 mg/kg",31.3 ng/mL
same,bioavailability,"[3]; oral, 10 mg/kg",8.1%
same,half-life,"[3]; oral, 10 mg/kg",4.91 h
same,Cmax,[4]; plasma,426 ng/mL
same,Tmax,[4]; plasma,0.25 h
same,AUC(0-t),[4]; [6],0.599 µg·h/mL
same,half-life,[4]; plasma,1.75 h
same,AUC(0-t),[4]; [7],45.8 µg·h/mL
same,AUC(0-t),[4]; [8],1430 µg·h/mL
"[2H]C([2H])([2H])NC(=O)c1cnc(Nc2ccn(C)n2)cc1Nc1cnn2ccc([C@H](O)C(F)(F)F)c(OC)c12 [Example 21, (S)-4-((4-methoxy-5-(2,2,2-trifluoro-1-hydroxyethyl)pyrazolo[1,5-a]pyridin-3-yl)amino)-N-(methyl-d3)-6-((1-methyl-1H-pyrazol-3-yl)amino)nicotinamide]",IC50,TYK2 pathway,14.5 nM
"[2H]C([2H])([2H])NC(=O)c1cnc(Nc2cc(C)nc(C)n2)cc1Nc1cnn2ccc([C@H](O)C(F)(F)F)c(OC)c12 [Example 25, (S)-6-((2,6-Dimethylpyrimidin-4-yl)amino)-4-((4-methoxy-5-(2,2,2-trifluoro-1-hydroxyethyl)pyrazolo[1,5-a]pyridin-3-yl)amino)-N-(methyl-d3)nicotinamide]",IC50,TYK2 pathway,7.18 nM
"[2H]C([2H])([2H])NC(=O)c1cnc(NC(=O)C2CC2)cc1Nc1cnn2ccc([C@H](OC)C(F)(F)F)c(OC)c12 [Example 27, (S)-6-(cyclopropanecarboxamido)-4-((4-methoxy-5-(2,2,2-trifluoro-1-methoxyethyl)pyrazolo[1,5-a]pyridin-3-yl)amino)-N-(methyl-d3)nicotinamide]",IC50,TYK2 pathway,6.02 nM
"[2H]C([2H])([2H])NC(=O)c1nnc(NC(=O)C2CC2)cc1Nc1cnn2ccc([C@H](O)C(F)(F)F)c(OC)c12 [Example 30, (S)-6-(cyclopropanecarboxamido)-4-((4-methoxy-5-(2,2,2-trifluoro-1-hydroxyethyl)pyrazolo[1,5-a]pyridin-3-yl)amino)-N-(methyl-d3)pyridazine-3-carboxamide]",IC50,TYK2 pathway,6.72 nM
"COC(=O)c1cnc(NC(=O)C2CC2)cc1Nc1nn(C)c2ccc([C@H](OC)C(F)(F)F)c(OC)c12 [Example 45B, Methyl (S)-6-(cyclopropanecarboxamido)-4-((4-methoxy-1-methyl-5-(2,2,2-trifluoro-1-methoxyethyl)-1H-indazol-3-yl)amino)nicotinate]",IC50,IFNa pSTAT1 [2],3.5 nM
same,AUC,[5]; brain,1963 ng·h/g
same,Kp,"[5]; dog, brain",1.12
same,AUC,[5]; [9],1.76 µg·h/mL
same,brain exposure in Dogs,[5],good brain exposure
"COC(=O)c1cnc(NC(=O)C2CC2)cc1Nc1nn(C)c2ccc([C@H](O)C(F)(F)F)c(OC)c12 [Example 48A, Methyl (S)-6-(cyclopropanecarboxamido)-4-((4-methoxy-1-methyl-5-(2,2,2-trifluoro-1-hydroxyethyl)-1H-indazol-3-yl)amino)nicotinate]",IC50,IFNa pSTAT1 [1],< 0.061 nM
same,IC50,IFNa pSTAT1 [2],0.74 nM
"[2H]C([2H])([2H])NC(=O)c1cnc(NC(=O)C2CC2)cc1Nc1nn(C)c2ccc([C@H](O)C(F)(F)F)c(OC)c12 [Example 49A, (S)-6-(cyclopropanecarboxamido)-4-((4-methoxy-1-methyl-5-(2,2,2-trifluoro-1-hydroxyethyl)-1H-indazol-3-yl)amino)-N-(methyl-d3)nicotinamide]",IC50,IFNa pSTAT1 [1],< 0.061 nM
same,AUC,"[3]; intravenous, 2 mg/kg",0.904 µg·h/mL
same,Vd,"[3]; intravenous, 2 mg/kg",2.2 L/kg
same,clearance,"[3]; intravenous, 2 mg/kg",38.2 mL/min/kg
same,half-life,"[3]; intravenous, 2 mg/kg",1.04 h
same,AUC,"[3]; oral, 10 mg/kg",0.418 µg·h/mL
same,Cmax,"[3]; oral, 10 mg/kg",74.2 ng/mL
same,bioavailability,"[3]; oral, 10 mg/kg",9.25%
same,half-life,"[3]; oral, 10 mg/kg",3.14 h
same,Cmax,[4]; plasma,1340 ng/mL
same,Tmax,[4]; plasma,0.25 h
same,AUC(0-t),[4]; [6],1.22 µg·h/mL
same,half-life,[4]; plasma,1.03 h
same,AUC(0-t),[4]; [7],21.3 µg·h/mL
same,AUC(0-t),[4]; [8],1590 µg·h/mL
"[2H]C([2H])([2H])O[C@@H](c1ccc2c(c(Nc3cc(NC(=O)C4CC4)ncc3C(=O)OC)nn2C)c1OC)C(F)(F)F [Example 50B, Methyl (S)-6-(cyclopropanecarboxamido)-4-((4-methoxy-1-methyl-5-(2,2,2-trifluoro-1-(methoxy-d3)ethyl)-1H-indazol-3-yl)amino)nicotinate]",IC50,IFNa pSTAT1 [2],3.73 nM
same,AUC,[5]; brain,1856 ng·h/g
same,Kp,"[5]; dog, brain",1.36
same,AUC,[5]; [9],1.37 µg·h/mL
same,brain exposure in Dogs,[5],good brain exposure
"[2H]C([2H])([2H])NC(=O)c1cnc(NC(=O)C2CC2)cc1Nc1nn(C)c2ccc([C@H](OC([2H])([2H])[2H])C(F)(F)F)c(OC)c12 [Example 55A, (S)-6-(cyclopropanecarboxamido)-4-((4-methoxy-1-methyl-5-(2,2,2-trifluoro-1-(methoxy-d3)ethyl)-1H-indazol-3-yl)amino)-N-(methyl-d3)nicotinamide]",IC50,IFNa pSTAT1 [1],0.192 nM
same,AUC,"[3]; intravenous, 3 mg/kg",3.65 µg·h/mL
same,Vd,"[3]; intravenous, 3 mg/kg",2.05 L/kg
same,clearance,"[3]; intravenous, 3 mg/kg",13.6 mL/min/kg
same,half-life,"[3]; intravenous, 3 mg/kg",2.56 h
same,AUC,"[3]; oral, 5 mg/kg",2.95 µg·h/mL
same,Cmax,"[3]; oral, 5 mg/kg",409 ng/mL
same,bioavailability,"[3]; oral, 5 mg/kg",48.6%
same,half-life,"[3]; oral, 5 mg/kg",2.67 h
